# Data from patent publication US9358276B2, “Methods of diagnosing and treating small intestinal bacterial overgrowth (SIBO) and SIBO-related conditions” (Cedars-Sinai Medical Center, priority 1999, dated 2016).
# Experiments:
# intestinal transit = assay: Intestinal transit in multi-fistulated dogs, cumulative % recovery of 99mTc-DTPA; type: in vivo, dog
# In short: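 Fistulated mongrel dogs (~25 kg) had the ~150 cm segment between duodenal and mid-gut fistulas isolated by occluding catheters and perfused at 2 mL/min with buffer plus test agent (some given i.v.). About 20 μCi 99mTc-DTPA was given as a bolus at 60 min of a 90-min perfusion. Mid-gut output was collected every 5 min for 30 min, gamma-counted, and reported as cumulative % recovery.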
# SIBO = assay: Neomycin/antibiotic treatment of subjects with fibromyalgia and SIBO; type: in vivo, human
# Description: Of these 37, 28 tested positive for SIBO.
# These ten subjects reported a 63±19% overall improvement in their symptoms by VAS scoring. FIG. 3 compares the VAS scores for various symptoms reported by the subjects with a suspected diagnosis of fibromyalgia before and after neomycin treatment. Symptoms included bloating, gas, diarrhea, joint pain and fatigue to treatment. Subjects were asked to identify the symptom most improved. Five subjects reported that pain was the most improved; three subjects reported that the level of fatigue was most improved, and two others reported that their abdominal complaints improved the most. There was a negative correlation between the degree of improvement in the VAS scoring and the amount of residual hydrogen peak seen in LBHT. (Pearson=−0.689, p=0.02; FIG. 4).
# Subsequently, forty-six human subjects with FM (ACR criteria) entered a double blind randomized placebo controlled trial. Each subject underwent LBHT, a tender point examination and completed a questionnaire at the initial (baseline) and at every subsequent visit. Subjects were randomized to receive neomycin (500 mg twice daily in liquid form) or a matched placebo, for 10 days. After completion of this treatment, subjects with persistent SIBO received antibiotics (open label) until at least partially eradication was confirmed by LBHT. […] Six out of 20 patients (30%) in the neomycin group achieved complete […] eradication in the blinded arm. […] (Initial data in Table 1a).
Compound,"proximal intestinal transit, cumulative % marker recovered (intestinal transit; 60 mM oleate distal gut, Saline (i.v.), Buffer Control 70.11 ± 6.51, five dogs) [%]","marker recovery (intestinal transit; 60 mM oleate in proximal gut + normal saline (jejunal brake), n=3) [%]","marker recovery (intestinal transit; 60 mM oleate in proximal gut with 0 mg naloxone, n=7) [%]","marker recovery (intestinal transit; 60 mM oleate into distal gut, Buffer Control 79.7±5.8%, n=2 dogs) [%]","marker recovery (intestinal transit; 60 mM oleate to distal gut (ileal brake), Buffer Control 81.2%) [%]","marker recovery (intestinal transit; ileal brake (oleate in distal gut, buffer in proximal gut), control 76.3±3.1%, four dogs) [%]","marker recovery (intestinal transit; ileal brake, 60 mM oleate into distal gut, n=2) [%]","marker recovery (intestinal transit; ileal brake, 60 mM oleate to distal gut, no naloxone, n=11) [%]","patients achieving complete eradication of SIBO in the blinded arm (SIBO; six out of 20, 500 mg twice daily liquid, 10 days) [%]",eradication of SIBO (post-treatment LBHT) (SIBO; ten fibromyalgia subjects),"overall improvement in symptoms by VAS scoring (SIBO; ten fibromyalgia subjects, 500 mg twice daily, 10-day course) [%]"
"CCCCCCCC/C=C\CCCCCCCC(=O)[O-].[Na+] [oleate, sodium oleate]",26.62 ± 5.36,41.6±4.6,30.0±3.6,25.8±5.2,24.1,22.9±3.8,20±1.8,34.6±4.8,,,
neomycin,,,,,,,,,30,at least partially eradicated,63±19
